Laboratory results: patent US10183015B2, “Heterocyclic compounds and methods of use” (Medivation Technologies LLC, priority 2015, dated 2019)
“And” between values parts separate entries of the source, which are not always exact repeats. Identical values can stand only once.

What was measured:
Format in all cases: in vivo
[1] = DIN mouse model: body weight, food and water intake, mortality
Procedure: (§1) Male C57Bl/6J mice (8 weeks old) were housed in enriched ventilated cages (31×12.5×12.7 cm) throughout the experimental phase. Animals' cages litters were changed at least once a week. Animal were housed 5 per cage on inverted 12-hour light cycle (at 09:00 am lights off), 22±2° C. and 55±10% relative humidity. The acclimation period was 20 days. During the acclimation period, all mice were fed a standard diet (RM1 (E) 801492, SDS) and tap water ad libitum. After the acclimation period, mice were fed with the DIN diet (60% fat, cholesterol enriched) and fructose-enriched tap water ad libitum until the end of the experiment.
(§2) At 6 weeks of diet, mice were 4-hour fasted (09:00 am to 1:00 pm) and blood (150 μl/EDTA) was collected at 01:00 pm by retro-orbital bleeding under isoflurane anesthesia. Mice were then allocated in 2 homogenous groups (n=12/group) according to their plasma levels of ALT (average levels: 685U/L), AST (average levels: 627U/L) and HOMA-IR index (average value: 4.7), into 2 homogenous groups (see values at day 0 in Tables 15A and 15B ALT/AST and Tables 16A and 16B for HOMA-IR). Mice were then treated once daily by oral gavage with vehicle (Group 1) or Compound #37 at 20 mg/kg (Group 2) for 70 days.
Results. […] Water intake tended to be higher in mice treated with, resulting in a 17% increase in cumulative water intake (p<0.05 vs. vehicle). […]

SREBP1C = assay: Short-term Paigen-diet NASH mouse model: hepatic SREBP1C gene expression (RT-qPCR); details: liver, 21 days; for DDct: SREBP1C Dct relative to vehicle mean; for Dct: SREBP1C minus 18S; for 2DDct: SREBP1C relative expression to vehicle group, normalized to 18S; for SREBP1C: raw RT-qPCR value
Procedure: (§3) To investigate whether Compound #37 prevents the development of pathology associated with NASH and steatosis in an acute exploratory disease model, a study was conducted using a diet-induced acute liver steatosis model in mice. As described below, in this study, C57BL/6J mice were initiated on the Paigen diet and simultaneously treated with Compound #37 (5, 20, and 40 mg/kg/day) or vehicle control (20% HPβCD 10 mL/kg/day) by oral gavage for 21 days.
(§4) After acclimation, 8-week old male C57Bl/6J mice (Charles River) weighing about 25 g were randomized in 4 groups according their body weight and treated once daily around noon by oral gavage with vehicle, or Compound #37 at various for 21 days as follows: Group 1: vehicle-20% (2-hydroxypropyl)-β-cyclodextrin (HP-β-CD) (n=10); Group 2: Compound #37, 5 mg/kg (n=10) Group 3: Compound #37, 20 mg/kg (n=10) Group 4: Compound #37, 40 mg/kg (n=10). During the treatment period, body weight and food intake (measured over 24h) were measured 3 times per week and once a week, respectively. During the acclimation, all mice were fed a standard diet (Special Diets Services RM1 (E), product no. 801492) and tap water ad libitum. After the acclimation period, mice were fed until the end of the experiment with a 60% high fat Paigen diet (60 kcal % fat, 1.25% cholesterol, and 0.5% cholate; D11061901, Research Diet) and tap water ad libitum.
(§5) Gene expression analysis. Hepatic expression levels of genes involved in lipid metabolism (FAS, SREBP1, ACC1, SCD1), cholesterol metabolism (HMG-CoAR, LDLR), SREBP proteolysis (SCAP, INSIG1), ER stress (PERK), oxidative stress (NRF2), inflammation (MCP-1), and fibrosis (collagen 1α1) were quantified by RTqPCR. Expression level was normalized to 18S gene expression and relative expression to vehicle group was calculated with the […] method.

PERK = assay: Short-term Paigen-diet NASH mouse model: hepatic PERK gene expression (RT-qPCR); details: 21 days
Procedure: as §3, §4, §5

INSIG1 = assay: DIN mouse model: hepatic INSIG1 gene expression; set-up: key to 2^DDct: expression relative to vehicle group, normalized to 18S; details: for 2^DDct / DDct / Dct / INSIG1: Gene Expression: INSIG1, 20 mg/kg group; for 18S: Gene Expression: INSIG1 table, 18S reference, 20 mg/kg group
Procedure: as §5, §1, §2
(§6) Hepatic expression levels of genes involved in lipid (FAS, SREBP1, ACC1, SCD1), cholesterol metabolism (HMG-CoAR, LDLR), in SREBP proteolysis (SCAP, INSIG1), in ER stress (PERK), oxidative stress (NRF2), and inflammation (MCP-1) were not changed. However, expression of collagen 1α1, involved in liver fibrosis, was reduced by 66% in mice treated with Compound #37 (p<0.05 vs. vehicle).

NRF2 = assay: DIN mouse model: hepatic NRF2 gene expression; details: liver, 20 mg/kg group
Procedure: as §5, §1, §2, §6

[2] = Compound #37 5 mg/kg, group mean, n=10
[3] = Compound #37 5 mg/kg, individual animals, 5 mg/kg
[4] = Compound #37 20 mg/kg, group mean, n=6
[5] = Compound #37 20 mg/kg, individual animals, 20 mg/kg
[6] = individual animals, vs vehicle mean, 20 mg/kg

CC(C)Cc1cc(-c2nc(-c3ccc(NS(=O)(=O)C(F)(F)F)cc3Cl)cs2)ccn1 [Compound 37, N-(3-chloro-4-(2-(2-isobutylpyridin-4-yl)thiazol-4-yl)phenyl)-1,1,1-trifluoromethanesulfonamide]
body weight and body weight gain ([1]; 20 mg/kg p.o. daily, 70 days): non-significant trend towards lower
tolerability ([1]; 20 mg/kg/day, 10 weeks): generally well tolerated
DDct (SREBP1C; [2]): 0.26
DDct (SREBP1C; [3]): −0.21 and 0.9 and 0.06 and −0.98 and 1.46 and 1.52 and −0.09 and −0.27 and 0.17 and 0.02
DDct (SREBP1C; [4]): −0.13
DDct (SREBP1C; [5]): 0.5 and 0.38 and 0.11 and −1.36 and 0.66 and −1.08
Dct (SREBP1C; [2]): 14
Dct (SREBP1C; [3]): 13.57 and 14.68 and 13.84 and 12.8 and 15.24 and 15.3 and 13.69 and 13.51 and 13.95 and 13.8
Dct (SREBP1C; [4]): 13.6
Dct (SREBP1C; [5]): 14.28 and 14.16 and 13.89 and 12.42 and 14.44 and 12.7
2DDct (SREBP1C; [2]): 0.95
2DDct (SREBP1C; [3]): 1.16 and 0.54 and 0.96 and 1.98 and 0.36 and 0.35 and 1.07 and 1.21 and 0.89 and 0.99
2DDct (SREBP1C; [4]): 1.29
2DDct (SREBP1C; [5]): 0.71 and 0.77 and 0.93 and 2.57 and 0.63 and 2.12
SREBP1C (SREBP1C; [2]): 26.3
SREBP1C (SREBP1C; [3]): 27.03 and 27.79 and 25.45 and 26.15 and 27.27 and 28.65 and 25.29 and 25.3 and 25.09 and 24.92
SREBP1C (SREBP1C; [4]): 25.8
SREBP1C (SREBP1C; [5]): 27.19 and 26.45 and 26.09 and 25.45 and 25.93 and 23.96
ER and oxidative stress gene expression PERK: 2DDct (PERK; 5 mg/kg, group mean, n 10): 0.91
ER and oxidative stress gene expression PERK: 18S (PERK; 5 mg/kg, group mean, n 10): 12.3
ER and oxidative stress gene expression PERK: DDct (PERK; 5 mg/kg, group mean, n 10): 0.32
ER and oxidative stress gene expression PERK: Dct (PERK; 5 mg/kg, group mean, n 10): 15.4
ER and oxidative stress gene expression PERK: PERK (PERK; 5 mg/kg, group mean, n 10): 27.6
ER and oxidative stress gene expression PERK: 2DDct (PERK; 5 mg/kg, individual animals): 1.29 and 0.54 and 0.35 and 1.5 and 0.42 and 0.58 and 1.06 and 1.56 and 0.97 and 0.79
ER and oxidative stress gene expression PERK: 18S (PERK; 5 mg/kg, individual animals): 13.46 and 13.11 and 11.61 and 13.35 (2×) and 12.03 and 11.6 and 11.79 and 11.14 and 11.12
ER and oxidative stress gene expression PERK: DDct (PERK; 5 mg/kg, individual animals): −0.36 and 0.9 and 1.52 and −0.58 and 1.24 and 0.8 and −0.08 and −0.64 and 0.04 and 0.34
ER and oxidative stress gene expression PERK: Dct (PERK; 5 mg/kg, individual animals): 14.68 and 15.94 and 16.56 and 14.46 and 16.28 and 15.84 and 14.96 and 14.4 and 15.08 and 15.38
ER and oxidative stress gene expression PERK: PERK (PERK; 5 mg/kg, individual animals): 28.14 and 29.05 and 28.17 and 27.81 and 28.31 and 29.19 and 26.56 and 26.19 and 26.22 and 26.5
ER and oxidative stress gene expression PERK: 2DDct (PERK; 20 mg/kg, group mean, n 6): 1.33
ER and oxidative stress gene expression PERK: 18S (PERK; 20 mg/kg, group mean, n 6): 12.2
ER and oxidative stress gene expression PERK: DDct (PERK; 20 mg/kg, group mean, n 6): −0.27
ER and oxidative stress gene expression PERK: Dct (PERK; 20 mg/kg, group mean, n 6): 14.8
ER and oxidative stress gene expression PERK: PERK (PERK; 20 mg/kg, group mean, n 6): 27
ER and oxidative stress gene expression PERK: 2DDct (PERK; 20 mg/kg, individual animals): 1.04 and 1.05 and 1.27 and 2.68 and 0.61 and 1.34
ER and oxidative stress gene expression PERK: 18S (PERK; 20 mg/kg, individual animals): 12.91 and 12.29 and 12.2 and 13.03 and 11.49 and 11.26
ER and oxidative stress gene expression PERK: DDct (PERK; 20 mg/kg, individual animals): −0.05 and −0.07 and −0.34 and −1.42 and 0.72 and −0.42
ER and oxidative stress gene expression PERK: Dct (PERK; 20 mg/kg, individual animals): 14.99 and 14.97 and 14.7 and 13.62 and 15.76 and 14.62
ER and oxidative stress gene expression PERK: PERK (PERK; 20 mg/kg, individual animals): 27.9 and 27.26 and 26.9 and 26.65 and 27.25 and 25.88
2^DDct (INSIG1; individual animal): 2.07 and 2.24 and 0.78 (2×) and 1.54 and 1.51 and 1.65 and 1.45 and 1.43 and 0.46 and 2.84
DDct (INSIG1; individual animal): −1.05 and −1.17 and 0.36 (2×) and −0.63 and −0.60 and −0.73 and −0.54 and −0.52 and 1.13 and −1.51
Dct (INSIG1; individual animal): 9.85 and 9.73 and 11.26 (2×) and 10.27 and 10.3 and 10.17 and 10.36 and 10.38 and 12.03 and 9.39
INSIG1 (INSIG1; individual animal): 22.4 and 22.28 and 24.1 and 22.7 and 22.65 and 22.76 (2×) and 22.09 and 22.89 and 23.58 and 21.74
2^DDct (INSIG1; mean, n 11): 1.52
DDct (INSIG1; mean, n 11): −0.44
Dct (INSIG1; mean, n 11): 10.5
INSIG1 (INSIG1; mean, n 11): 22.7
18S (INSIG1; individual animal, 20 mg/kg): 12.55 (2×) and 12.84 and 12.43 and 12.35 (2×) and 12.59 and 11.73 and 12.51 and 11.5 and 11.55
18S (INSIG1; mean, n 11): 12.3
NRF2 Dct (NRF2; individual animals, normalised to 18S, 20 mg/kg): 10.62 and 10.7 and 12.57 and 11.27 and 11.31 and 10.88 and 11.1 and 10.74 and 12.23 and 11.89 and 9.9
NRF2 2^DDct (NRF2; [6]): 1.34 and 1.27 and 0.35 and 0.85 and 0.83 and 1.12 and 0.96 and 1.23 and 0.44 and 0.56 and 2.21
NRF2 DDct (NRF2; [6]): −0.42 and −0.34 and 1.53 and 0.23 and 0.27 and −0.16 and 0.06 and −0.3 and 1.19 and 0.85 and −1.14
NRF2 (Ct) (NRF2; individual animals, 20 mg/kg): 23.17 and 23.25 (2×) and 25.41 and 23.7 and 23.66 and 23.47 and 22.83 and 23.73 and 23.44 and 22.25
NRF2 2^DDct (NRF2; mean, n 11): 1.01
NRF2 (Ct) (NRF2; mean, n 11): 23.5
NRF2 DDct (NRF2; mean, n 11): 0.16
NRF2 Dct (NRF2; mean, n 11): 11.2
